{
  "source": "patent US10815196B2",
  "about": "“(S)-CSA salt of S-ketamine, (R)-CSA salt of S-ketamine and processes for the preparation of S-ketamine” (Janssen Pharmaceutica NV, priority 2015, dated 2020)",
  "type_in_all_cases": "physicochemical",
  "key": {"[1]": {"assay": "Approximate solubility by stepwise dilution of a suspension", "conditions": "thermodynamic from solid", "protocol": "The approximate solubility of the monohydrate crystalline form of the (S)-CSA salt of S-ketamine was measured by stepwise dilution of a suspension of about 10 mg of the sample in 0.05 mL solvent. Table 4 below lists the approximate solubility, denoted “S”. If a sample was not dissolved by addition of a total of 10-12 mL of solvent, the solubility is indicated as <1 mg/mL in the Table 4, below."}, "[2]": {"assay": "TG-FTIR measurement", "conditions": "25° C. to 300° C., 10K/min, nitrogen", "protocol": "ThermoGravimetric-Fourier Transform InfraRed (TG-FTIR) measurements, where carried out were measures using a Netzsche Thermo-Microbalance TG209 with Bruker FT-IR Spectrometer Vector 22, with aluminum crucible with microhoel, nitrogen atmosphere and scanning form 25° C. to 300° C. at a heating rate of 10K/min."}, "[3]": {"assay": "Dynamic Vapor Sorption (DVS) measurement", "protocol": "Dynamic Vapor Sorption (DVS) measurements (where completed) were measured using a Projekt Messtechnik Sorptions Prufsystem SPS 11 or Surface Measurement Systems DVS-1 scanning (cycling relative humidity and hodling the sample at a set relative humidity) as follow: (a) holding sample at 50% RH for 2 hours; (b) 50% RH to 0% RH (5%/h); holding at 0% RH for 5 hours; (c) 0% RH to 95% RH (5%/h); holding at 95% RH for 5 hours; and (d) 95% RH to 50% RH (5%/h); holding at 50% RH for 2 hours."}, "[4]": {"assay": "Solubility in select solvents after 24 hours, filtrate analyzed by HPLC", "protocol": "Additionally, the solubility of the monohydrate crystalline form of the (S)-CSA salt of S-ketamine in select solvents was determined as follows: 21 g of (S)-CSA salt of S- ketamine was dissolved in 100 mL of solvent (as listed in Table 5 below). After 24 hours, the solutions were analyzed visually. If the compound was completely dissolved, solubility was above 20 g/100 mL. If the compound was not completely dissolved, any remaining precipitate was filtered off, the filtrate was diluted 400-fold with HPLC dilution solvent (or acetonitrile/HPLC dilution solvent) and analyzed by HPLC, with results as listed in Table 5, below."}, "[5]": {"assay": "Storage of amorphous anhydrous form at ambient conditions", "protocol": ". The amorphous anhydrous form of (S)-CSA salt of S-ketamine was also obtained (in a mixture with the monohdrate form) by slurrying the crystalline monohydrate form of (S)-CSA salt of S-ketamine in 2-methyl THF or isopropyl acetate at about 80° C. for about 4 days."}},
  "data": [
    {"smiles": "CN[C@]1(c2ccccc2Cl)CCCCC1=O", "note": "[(S)-2-(2-chlorophenyl)-2-(methylammonium)cyclohexanone(+)-camphorsulfonate monohydrate]", "values": [
      {"measurement": "solubility", "setting": "[1]; 10:1 acetone:water, organic solvent or mixture, solvent: 10:1 aectobne:water", "result": "20 to 24", "unit": "mg/mL"},
      {"measurement": "solubility", "setting": "[1]; aqueous with cosolvent or surfactant or cyclodextrin, solvent: 1:1 2-propanol:water", "result": "93 to 189", "unit": "mg/mL"},
      {"measurement": "solubility", "setting": "[1]; aqueous with cosolvent or surfactant or cyclodextrin, solvent: 1:1 acetone:water", "result": "58 to 77", "unit": "mg/mL"},
      {"measurement": "solubility", "setting": "[1]; organic solvent or mixture, solvent: 1,4-dioxane", "result": "5 to 6", "unit": "mg/mL"},
      {"measurement": "solubility", "setting": "[1]; organic solvent or mixture, solvent: 1:1 2-propanol:isopropyl acetate", "result": "10 to 11", "unit": "mg/mL"},
      {"measurement": "solubility", "setting": "[1]; organic solvent or mixture, solvent: 2-methyl THF saturated with water", "result": "6 to 8", "unit": "mg/mL"},
      {"measurement": "solubility", "setting": "[1]; organic solvent or mixture, solvent: 2-methyl-THF", "result": "5 to 7", "unit": "mg/mL"},
      {"measurement": "solubility", "setting": "[1]; organic solvent or mixture, solvent: 2-propanol", "result": "22 to 25", "unit": "mg/mL"},
      {"measurement": "solubility", "setting": "[1]; organic solvent or mixture, solvent: 10:1 2-propanol:water", "result": "24 to 28", "unit": "mg/mL"},
      {"measurement": "solubility", "setting": "[1]; organic solvent or mixture, solvent: DCM", "result": "67 to 101", "unit": "mg/mL"},
      {"measurement": "solubility", "setting": "[1]; organic solvent or mixture, solvent: DMF", "result": "91 to 185", "unit": "mg/mL"},
      {"measurement": "solubility", "setting": "[1]; organic solvent or mixture, solvent: DMSO", "result": "106 to 212", "unit": "mg/mL"},
      {"measurement": "solubility", "setting": "[1]; organic solvent or mixture, solvent: TBME", "result": "< 1", "unit": "mg/mL"},
      {"measurement": "solubility", "setting": "[1]; organic solvent or mixture, solvent: THF", "result": "5 to 7", "unit": "mg/mL"},
      {"measurement": "solubility", "setting": "[1]; organic solvent or mixture, solvent: acetone", "result": "5 to 6", "unit": "mg/mL"},
      {"measurement": "solubility", "setting": "[1]; organic solvent or mixture, solvent: acetonitrile", "result": "22 to 24", "unit": "mg/mL"},
      {"measurement": "solubility", "setting": "[1]; organic solvent or mixture, solvent: anisole", "result": "< 1", "unit": "mg/mL"},
      {"measurement": "solubility", "setting": "[1]; organic solvent or mixture, solvent: ethanol", "result": "67 to 100", "unit": "mg/mL"},
      {"measurement": "solubility", "setting": "[1]; organic solvent or mixture, solvent: ethyl acetate", "result": "< 1", "unit": "mg/mL"},
      {"measurement": "solubility", "setting": "[1]; organic solvent or mixture, solvent: heptane", "result": "< 1", "unit": "mg/mL"},
      {"measurement": "solubility", "setting": "[1]; organic solvent or mixture, solvent: isopropyl acetate", "result": "< 1", "unit": "mg/mL"},
      {"measurement": "solubility", "setting": "[1]; organic solvent or mixture, solvent: methanol", "result": "> 226", "unit": "mg/mL"},
      {"measurement": "solubility", "setting": "[1]; organic solvent or mixture, solvent: toluene", "result": "< 1", "unit": "mg/mL"},
      {"measurement": "solubility", "setting": "[1]; solvent: water", "result": "20 to 24", "unit": "mg/mL"},
      {"measurement": "Chemical decomposition temperature", "setting": "[2]", "result": "above 230 °C"},
      {"measurement": "Hygroscopicity", "setting": "[3]; cycling 0% RH to 95% RH", "result": "no hygroscopicity"},
      {"measurement": "Physical stability at elevated relative humidity", "setting": "[3]; elevated relative humidity", "result": "physical stability"},
      {"measurement": "Solubility at 23.6° C.", "setting": "[4]; solvent: 2-propanol", "result": 7.275, "unit": "g/100 mL"},
      {"measurement": "Solubility at 23.6° C.", "setting": "[4]; solvent: N,N-dimethylacetamide", "result": 18.200, "unit": "g/100 mL"},
      {"measurement": "Solubility at 23.6° C.", "setting": "[4]; solvent: N,N-dimethylformamide", "result": 18.267, "unit": "g/100 mL"},
      {"measurement": "Solubility at 23.6° C.", "setting": "[4]; solvent: acetic acid", "result": 18.209, "unit": "g/100 mL"},
      {"measurement": "Solubility at 23.6° C.", "setting": "[4]; solvent: acetone (2-propanone)", "result": 0.578, "unit": "g/100 mL"},
      {"measurement": "Solubility at 23.6° C.", "setting": "[4]; solvent: dichloromethane/methanol (50/50 v/v)", "result": 18.589, "unit": "g/100 mL"},
      {"measurement": "Solubility at 23.6° C.", "setting": "[4]; solvent: ethanol", "result": 18.297, "unit": "g/100 mL"},
      {"measurement": "Solubility at 23.6° C.", "setting": "[4]; solvent: methanol", "result": 18.457, "unit": "g/100 mL"},
      {"measurement": "solubility thermodynamic at 24 h", "setting": "[4]; thermodynamic from solid, solvent: demineralized water, 23.6° C.", "result": 53.4, "unit": "mg/mL"}
    ]},
    {"smiles": "CC1(C)[C@@H]2CC[C@@]1(CS(=O)(=O)O)C(=O)C2.CN[C@]1(c2ccccc2Cl)CCCCC1=O", "values": [
      {"measurement": "Hygroscopicity", "setting": "[5]; amorphous, anhydrous form", "result": "hygroscopic"},
      {"measurement": "Form stability on storage", "setting": "[5]; storage at ambient conditions", "result": "rapidly converts to the monohydrate form"}
    ]}
  ]
}
